Results reported in ChEMBL document CHEMBL1201862, “PubChem BioAssay data set” (2004).
Blank lines part the entries; values can stand above or below the compound they belong to. The source made the active and inactive calls.

Assays:
[1] = Fluorescence-based cell-based high throughput dose response assay for inhibitors of the interaction of nucleotide-binding oligomerization domain containing 2 (NOD2) and the receptor-interacting serine-threonine kinase 2 (RIPK2).; format: functional; details: Homo sapiens
[2] = target: Beta-2 adrenergic receptor (Homo sapiens, UniProt P07550); test: beta2AR agonists driving receptor internalization, dose response, cell-based, FAP fluorogen, flow cytometry, cherry pick 1 (AID 588763); format: functional
[3] = target: Neuropeptides B/W receptor type 1 (Homo sapiens, UniProt P48145); test: GPR7 antagonist potency, late-stage follow-up, cell-based, fluorescence, dose response, set 5 (AID 588566); format: functional
[4] = target: Melanin-concentrating hormone receptor 1 (Homo sapiens, UniProt Q99705); test: Late-stage fluorescence-based counterscreen for antagonists of the G-protein coupled receptor 7 (GPR7): cell-based dose response assay to identify antagonists of the melanin-concentrating hormone receptor 1 (MCHR1) Set 5.; format: functional
Chain of Melanin-concentrating hormone receptor 1 (Q99705 whole entry): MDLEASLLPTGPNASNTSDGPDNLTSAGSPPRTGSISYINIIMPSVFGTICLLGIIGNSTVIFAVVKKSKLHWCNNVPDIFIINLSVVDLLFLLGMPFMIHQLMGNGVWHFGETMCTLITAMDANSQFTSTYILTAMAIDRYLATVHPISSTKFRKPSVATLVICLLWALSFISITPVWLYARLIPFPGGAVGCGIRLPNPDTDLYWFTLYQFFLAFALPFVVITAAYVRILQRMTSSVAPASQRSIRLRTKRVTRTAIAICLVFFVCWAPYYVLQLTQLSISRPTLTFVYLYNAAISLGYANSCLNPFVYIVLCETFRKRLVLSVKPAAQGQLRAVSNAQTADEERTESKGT

[5] = target: T1, DNA repair protein RAD52 homolog (Homo sapiens, UniProt P43351); format: functional, biochemical
T1 sequence (P43351 whole entry): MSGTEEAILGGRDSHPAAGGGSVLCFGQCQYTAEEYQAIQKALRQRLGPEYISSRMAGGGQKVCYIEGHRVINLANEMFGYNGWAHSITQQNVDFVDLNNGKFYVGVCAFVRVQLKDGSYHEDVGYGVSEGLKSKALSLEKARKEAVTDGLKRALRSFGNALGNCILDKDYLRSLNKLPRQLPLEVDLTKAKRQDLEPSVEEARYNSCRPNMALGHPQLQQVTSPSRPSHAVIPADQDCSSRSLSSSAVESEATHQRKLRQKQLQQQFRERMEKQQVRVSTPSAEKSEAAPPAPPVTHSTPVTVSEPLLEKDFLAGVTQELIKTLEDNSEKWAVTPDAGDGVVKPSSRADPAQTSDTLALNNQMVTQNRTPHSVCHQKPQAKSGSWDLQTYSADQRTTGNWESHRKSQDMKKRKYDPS

[6] = target: DNA repair and recombination protein RAD54-like (Homo sapiens, UniProt Q92698); test: inhibitors of human RAD54 branch migration, confirmation, biochemical, fluorescence, cherry-picked samples, dose series (AID 651657); format: functional
Chain of DNA repair and recombination protein RAD54-like (Q92698 whole entry): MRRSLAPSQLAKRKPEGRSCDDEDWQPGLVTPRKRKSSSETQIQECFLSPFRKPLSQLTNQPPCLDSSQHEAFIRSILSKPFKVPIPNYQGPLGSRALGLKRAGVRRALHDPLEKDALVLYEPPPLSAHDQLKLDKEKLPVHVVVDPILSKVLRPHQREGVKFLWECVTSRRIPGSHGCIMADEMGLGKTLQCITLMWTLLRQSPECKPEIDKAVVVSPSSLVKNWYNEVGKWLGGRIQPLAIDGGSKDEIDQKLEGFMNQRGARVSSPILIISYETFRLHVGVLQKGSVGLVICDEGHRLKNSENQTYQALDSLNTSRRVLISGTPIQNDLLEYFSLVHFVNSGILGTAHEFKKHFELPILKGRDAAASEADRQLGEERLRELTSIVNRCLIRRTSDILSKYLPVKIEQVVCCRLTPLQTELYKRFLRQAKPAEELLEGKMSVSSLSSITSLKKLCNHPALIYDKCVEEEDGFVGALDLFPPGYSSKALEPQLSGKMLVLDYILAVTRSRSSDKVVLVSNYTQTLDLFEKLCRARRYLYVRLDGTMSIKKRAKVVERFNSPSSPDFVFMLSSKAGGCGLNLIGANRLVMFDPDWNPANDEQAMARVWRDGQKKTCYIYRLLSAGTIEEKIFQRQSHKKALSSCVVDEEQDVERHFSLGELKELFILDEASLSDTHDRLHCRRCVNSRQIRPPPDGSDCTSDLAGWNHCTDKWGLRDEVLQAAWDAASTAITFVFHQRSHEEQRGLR

[7] = target: Interleukin-1 receptor-associated kinase 4 (Homo sapiens, UniProt Q9NWZ3); format: functional
[8] = target: Cell division cycle 7-related protein kinase (Homo sapiens, UniProt O00311); format: functional;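 note: value obtained from a kinome-wide kinase panel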
Chain of Cell division cycle 7-related protein kinase (O00311 whole entry): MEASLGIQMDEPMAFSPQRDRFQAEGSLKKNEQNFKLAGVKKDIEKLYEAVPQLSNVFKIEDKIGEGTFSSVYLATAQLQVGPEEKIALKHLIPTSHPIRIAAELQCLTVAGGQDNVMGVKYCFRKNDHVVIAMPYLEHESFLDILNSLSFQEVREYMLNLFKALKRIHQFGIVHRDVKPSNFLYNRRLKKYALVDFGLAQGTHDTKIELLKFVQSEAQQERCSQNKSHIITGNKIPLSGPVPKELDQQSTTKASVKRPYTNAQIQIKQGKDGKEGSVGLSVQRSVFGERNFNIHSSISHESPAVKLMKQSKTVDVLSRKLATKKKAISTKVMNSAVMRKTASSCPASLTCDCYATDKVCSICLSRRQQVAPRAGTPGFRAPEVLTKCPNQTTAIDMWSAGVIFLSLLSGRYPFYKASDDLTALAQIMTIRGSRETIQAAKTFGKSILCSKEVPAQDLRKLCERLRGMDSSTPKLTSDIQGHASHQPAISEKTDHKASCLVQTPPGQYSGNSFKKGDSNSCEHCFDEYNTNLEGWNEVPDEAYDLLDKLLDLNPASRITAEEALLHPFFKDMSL

[9] = target: Mitogen-activated protein kinase kinase kinase kinase 4 (Homo sapiens, UniProt O95819); format: functional
Chain of Mitogen-activated protein kinase kinase kinase kinase 4 (O95819 whole entry): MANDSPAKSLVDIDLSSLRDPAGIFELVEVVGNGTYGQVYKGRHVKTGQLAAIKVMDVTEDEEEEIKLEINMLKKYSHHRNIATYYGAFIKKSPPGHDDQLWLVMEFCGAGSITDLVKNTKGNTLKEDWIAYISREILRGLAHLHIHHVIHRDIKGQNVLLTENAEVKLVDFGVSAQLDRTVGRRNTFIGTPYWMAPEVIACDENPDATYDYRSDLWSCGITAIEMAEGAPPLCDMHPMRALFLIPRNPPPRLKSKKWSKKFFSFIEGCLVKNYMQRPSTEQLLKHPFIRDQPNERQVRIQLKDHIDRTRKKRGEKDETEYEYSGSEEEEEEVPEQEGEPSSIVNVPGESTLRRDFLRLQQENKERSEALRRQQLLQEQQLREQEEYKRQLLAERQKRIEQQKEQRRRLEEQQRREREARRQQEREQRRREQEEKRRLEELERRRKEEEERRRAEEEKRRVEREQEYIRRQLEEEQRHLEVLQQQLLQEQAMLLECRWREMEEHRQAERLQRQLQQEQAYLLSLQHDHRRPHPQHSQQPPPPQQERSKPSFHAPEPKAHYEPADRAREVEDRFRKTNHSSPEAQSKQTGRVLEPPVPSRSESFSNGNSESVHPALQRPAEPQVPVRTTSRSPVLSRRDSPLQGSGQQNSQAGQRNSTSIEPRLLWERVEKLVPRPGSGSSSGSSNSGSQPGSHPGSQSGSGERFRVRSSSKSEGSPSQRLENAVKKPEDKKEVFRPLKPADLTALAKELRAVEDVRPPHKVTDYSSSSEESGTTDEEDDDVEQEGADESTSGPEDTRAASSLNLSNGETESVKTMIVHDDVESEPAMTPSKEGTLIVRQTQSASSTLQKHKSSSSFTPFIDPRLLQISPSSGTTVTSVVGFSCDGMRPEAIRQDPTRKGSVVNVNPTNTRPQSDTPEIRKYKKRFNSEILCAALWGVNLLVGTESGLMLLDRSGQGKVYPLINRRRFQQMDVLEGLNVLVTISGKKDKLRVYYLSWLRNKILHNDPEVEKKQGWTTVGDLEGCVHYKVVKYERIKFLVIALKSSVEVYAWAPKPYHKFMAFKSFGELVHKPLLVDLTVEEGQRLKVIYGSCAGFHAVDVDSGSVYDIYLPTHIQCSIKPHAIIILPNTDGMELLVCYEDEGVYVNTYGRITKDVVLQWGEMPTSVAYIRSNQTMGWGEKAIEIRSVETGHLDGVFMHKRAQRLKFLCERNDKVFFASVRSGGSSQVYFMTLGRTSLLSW

[10] = target: MAP kinase-interacting serine/threonine-protein kinase 2 (Homo sapiens, UniProt Q9HBH9); format: functional
Chain of MAP kinase-interacting serine/threonine-protein kinase 2 (Q9HBH9 whole entry): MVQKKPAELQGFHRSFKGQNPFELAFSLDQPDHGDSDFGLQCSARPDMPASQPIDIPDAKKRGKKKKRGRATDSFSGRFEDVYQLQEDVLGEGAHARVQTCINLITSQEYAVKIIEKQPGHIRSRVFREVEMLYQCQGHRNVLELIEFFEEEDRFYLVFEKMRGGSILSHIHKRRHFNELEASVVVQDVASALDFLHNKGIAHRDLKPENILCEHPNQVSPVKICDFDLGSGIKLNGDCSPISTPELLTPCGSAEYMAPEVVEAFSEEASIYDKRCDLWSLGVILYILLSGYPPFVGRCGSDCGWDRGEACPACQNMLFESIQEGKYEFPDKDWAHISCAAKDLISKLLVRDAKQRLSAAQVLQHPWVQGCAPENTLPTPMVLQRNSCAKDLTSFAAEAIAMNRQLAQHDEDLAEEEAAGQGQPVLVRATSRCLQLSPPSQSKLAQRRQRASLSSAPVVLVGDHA

[11] = target: Glycogen synthase kinase-3 beta (Homo sapiens, UniProt P49841); format: functional;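 note: value comes from a broad kinome profiling panel, with GSK3B as the panel member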
[12] = target: cAMP-dependent protein kinase catalytic subunit alpha (Homo sapiens, UniProt P17612); format: functional
[13] = target: Serine/threonine-protein kinase pim-1 (Homo sapiens, UniProt P11309); format: functional
Chain of Serine/threonine-protein kinase pim-1 (P11309 whole entry): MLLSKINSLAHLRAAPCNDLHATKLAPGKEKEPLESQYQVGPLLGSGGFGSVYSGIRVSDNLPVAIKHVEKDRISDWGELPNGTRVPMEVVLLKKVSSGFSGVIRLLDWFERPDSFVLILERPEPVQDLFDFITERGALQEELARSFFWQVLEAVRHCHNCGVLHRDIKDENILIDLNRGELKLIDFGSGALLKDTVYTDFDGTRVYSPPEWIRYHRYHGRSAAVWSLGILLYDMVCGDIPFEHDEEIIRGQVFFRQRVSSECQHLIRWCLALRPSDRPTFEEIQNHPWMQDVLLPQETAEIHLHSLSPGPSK

[14] = target: T2, Small ubiquitin-related modifier 1 (Homo sapiens, UniProt P63165); test: inhibitors of SUMO1 partner interactions, dose response, biochemical, FRET (AID 624383); format: functional; details: read-out: IC50_Mean
T2 sequence (P63165 whole entry): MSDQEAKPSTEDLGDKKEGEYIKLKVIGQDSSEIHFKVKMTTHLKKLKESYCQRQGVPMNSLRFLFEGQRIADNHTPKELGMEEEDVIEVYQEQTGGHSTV

[15] = target: T2, Small ubiquitin-related modifier 1; test: inhibitors of SUMO1 peptide binding, dose response, biochemical, fluorescence polarization, uHTS hits (AID 624382); format: functional; details: read-out: IC50_Mean
Activin receptor type-1 = Activin receptor type-1 (Homo sapiens, UniProt Q04771); test: Navigating the Kinome. Panel member name: ACVR1; format: functional
Chain of Activin receptor type-1 (Q04771 whole entry, the tested form may be a part): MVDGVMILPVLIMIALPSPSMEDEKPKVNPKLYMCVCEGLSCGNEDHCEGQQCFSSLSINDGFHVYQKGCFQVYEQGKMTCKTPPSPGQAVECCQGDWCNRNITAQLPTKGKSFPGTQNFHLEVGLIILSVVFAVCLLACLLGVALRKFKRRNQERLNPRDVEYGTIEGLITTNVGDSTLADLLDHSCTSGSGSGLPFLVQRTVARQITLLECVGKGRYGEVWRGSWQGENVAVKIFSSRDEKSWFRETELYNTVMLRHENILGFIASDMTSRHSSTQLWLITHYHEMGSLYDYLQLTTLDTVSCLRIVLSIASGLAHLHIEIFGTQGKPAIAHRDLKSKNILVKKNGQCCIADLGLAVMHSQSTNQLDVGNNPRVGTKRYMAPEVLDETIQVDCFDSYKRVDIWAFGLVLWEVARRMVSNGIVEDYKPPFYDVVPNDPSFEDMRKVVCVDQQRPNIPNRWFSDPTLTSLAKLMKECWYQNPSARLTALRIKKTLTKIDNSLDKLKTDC

[16] = target: Photoreceptor-specific nuclear receptor (Homo sapiens, UniProt Q9Y5X4); format: functional, cell-based;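 note: CHO-S cells with Gal4-NCOR and VP16-NR2E3 two-hybrid luciferase reporter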
Chain of Photoreceptor-specific nuclear receptor (Q9Y5X4 whole entry, the tested form may be a part): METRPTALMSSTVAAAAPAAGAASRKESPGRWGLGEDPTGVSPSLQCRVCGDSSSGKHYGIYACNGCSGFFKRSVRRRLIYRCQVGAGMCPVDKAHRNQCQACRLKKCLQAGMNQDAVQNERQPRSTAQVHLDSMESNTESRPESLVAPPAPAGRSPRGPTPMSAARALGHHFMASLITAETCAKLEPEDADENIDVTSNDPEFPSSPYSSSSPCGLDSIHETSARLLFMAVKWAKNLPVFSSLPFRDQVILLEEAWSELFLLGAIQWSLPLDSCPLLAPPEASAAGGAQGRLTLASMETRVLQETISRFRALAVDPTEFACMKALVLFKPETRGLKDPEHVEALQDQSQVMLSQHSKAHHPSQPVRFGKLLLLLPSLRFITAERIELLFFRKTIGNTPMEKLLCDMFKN

Compound: N#Cc1cccc(NC(=O)COC(=O)c2ccccc2C(=O)c2ccc(Cl)c([N+](=O)[O-])c2)c1
- IC50 [1]: 1990 nM (active)
- EC50 [2]: 5270 nM (inactive)

Compound: CCCCNc1cc(-c2c[nH]c3ncccc23)ncn1
- Ki [7]: 1000 nM (active)
- Ki [8]: 6.31 nM (active)
- Ki [9]: 15.8 nM (active)
- Ki [10]: 63.1 nM (active)
- Ki [11]: 50.1 nM (active)
- Ki [12]: 1000 nM (active)
- Ki [13]: 158 nM (active)

Compound: O=C(NCc1ccccn1)c1ccc2c(=O)n3nc(Nc4ccccc4)sc3nc2c1
- IC50 [14]: 8940 nM (active)
- IC50 [15]: > 66600 nM (inactive)

Results, then the compound that gave them:

- IC50 [3]: > 20000 nM (inactive)
- IC50 [4]: > 20000 nM (inactive)
Compound: O=c1c(Oc2ccc3c(c2)OCO3)c(Cl)cnn1C1c2ccccc2-c2ccccc21

- AC50 [5]: 5010 nM (active)
- AC50 [6]: 17200 nM (active)
Compound: CCN(CC)CCN=C(S)Nc1ccc2nc(N3CCN(C)CC3)cc(C)c2c1

- Ki (Activin receptor type-1): 1260 nM (active)
Compound: Cn1c(=O)n(-c2ccc(C(C)(C)C#N)cc2)c2c3cc(-c4cnc5ccccc5c4)ccc3ncc21 [DACTOLISIB]

- IC50 [16]: 1060 nM (active)
Compound: O=C(C1CC1)N1CCc2cc(Br)cc(S(=O)(=O)N3CCN(c4ccccn4)CC3)c21
